EPA's ToxRefDB 2

Legend:
rat [1] = conditions: Sub-acute repeat dose toxicity; sprague dawley; Injection; Intravenous; dose end: 4 day; group: systemic; systemic / in life observation / clinical signs / drooping eyelids (ptosis) + systemic / in life observation / clinical signs / external …
dog = conditions: Sub-acute repeat dose toxicity, beagle, Injection, Intravenous, dose end: 5 day, group: systemic
primate = conditions: Sub-acute repeat dose toxicity; Injection; Intravenous; dose end: 5 day; group: systemic; systemic / in life observation / clinical signs / [other] + systemic / in life observation / clinical signs / compulsive biting or licking…
rat [2] = conditions: Sub-acute repeat dose toxicity; sprague dawley; Injection; Intravenous; dose end: 5 day; group: systemic; systemic / in life observation / clinical signs / drooping eyelids (ptosis) + systemic / in life observation / clinical signs / reduced …
[3] = systemic / clinical chemistry / bile acids / bile acids
[4] = systemic / clinical chemistry / bile acids / bile acids + systemic / pathology microscopic / gallbladder / hyperplasia + systemic / …

## CNC(=O)[C@H]1O[C@@H](n2cnc3c(NCc4cc(Cl)ccc4OCc4cc(C)no4)ncnc32)[C@H](O)[C@@H]1N
Rat [1]
  LEL: 5 mg/kg/day
  LOAEL: > 5 mg/kg/day
  NEL: < 5 mg/kg/day
  NOAEL: ≥ 5 mg/kg/day
dog; [3]
  LEL: 3 mg/kg/day
  NEL: < 3 mg/kg/day
dog; [4]
  LOAEL: > 30 mg/kg/day
  NOAEL: ≥ 30 mg/kg/day
primate
  LEL: 40 mg/kg/day
  LOAEL: > 40 mg/kg/day
  NEL: 15 mg/kg/day
  NOAEL: ≥ 40 mg/kg/day
Rat [2]
  LEL: 5 mg/kg/day
  LOAEL: > 150 mg/kg/day
  NEL: < 5 mg/kg/day
  NOAEL: ≥ 150 mg/kg/day
